US6410508B1 (priority 1998, dated 2002)

How the values were obtained:
[1] = system: SaOS2 cells; test: Intracellular calcium measurement with fura-2 in SaOS2 cells; format: cell-based, human; conditions: fura-2, dose-dependent response
Description: (§1) Peak increases in intracellular calcium from four different experiments were calculated. Data is expressed as mean±SEM; *=p<0.001; **=p<0.001. […] Cellular cAMP was measured with a commercially available radioimmunoassay (Biomedical Technologies, Stoughton, Mass.). Data is expressed as mean+SEM; **=p<0.001.
Intracellular calcium measurements were made as described by Gasalla-Herraiz, et al., Biochem Biophys Res Commun 214:373-88 (1995). Briefly, SaOS2 cells were grown in 75 cm^2 flasks and removed by incubating in PBS/EGTA. Cells were loaded with the calcium sensitive dye fara-2AM in KRB, for 45 min at room temperature. The cells were then centrifuged and resuspended in KRB. After approximately 30 minutes at room temperature, to allow esterase cleavage of fura-2AM to fura-2, the cells were again centrifuged and placed in a cuvette in a dual-wavelength spectrophotometer (Photon Technologies International, South Brunswick, N.J.). Fluorescence was then measured using excitation wavelengths of 340 and 380 nm and an emission wavelength of 510 nm. Autoflourescence was measured in unloaded cells and this value subtracted from all the measurements.

[2] = system: ovariectomized (OVX) rat; test: Bone mineral density by DXA in ovariectomized and non-OVX rats; format: in vivo, Sprague-Dawley rats; conditions: six weeks
Excerpt: 1. Control. Five non-OVX rats received daily injections at the same time everyday (09:00) of saline vehicle for six weeks into the tail vein.
3. OVX. Six OVX rats received saline vehicle injected daily for six weeks.

[3] = system: SaOS2 cells; test: Collagen type I mRNA expression by northern blot in SaOS2 cells; format: cell-based, human
Description: After 24 hourg, total RNA was extracted and probed with a collagen type I specific probe. The autoradiographs were then scanned and the densitometry quantified on a Sun Sparc station using Bioimage software. (n=4, *=p<0.001). […] The densitometry of four different experiments was summed and is expressed as a bar graph; *=p<0.001 vs control, as a function of time, in FIG. 2A.
After 24 hours, total RNA was extracted from cells using Trizol. RNA (20 μg) was electrophoresed on a 1.2% agarose-formaldehyde gel and transferred to a nylon filter. The blots were hybridized overnight at 65° C. with a ^32P-labeled probe (10^6 cpm/ml), labeled by the random-priming method and washed at a maximum stringency. Blots were exposed to Kodak XAR 5 film and analyzed by densitometry, quantified on a Sun Sparc station using Bioimage software. (n=4, *=p<0.001). The collagen densitometry was normalized to GAPDH, a housekeeping gene, found not to change in response to GIP.
Total RNA was extracted from cells using Trizol (Gaithersburg, Md.). RNA was stored at −70° C. until use. RNA (20 μg) was electrophoresed on a 1.2% agarose-formaldehyde gel and transferred to a nylon filter. The blots were hybridized overnight at 65° C. with a ^32P-labeled probe (10^6 cpm/ml), labeled by the random-priming method and washed at maximum stringency. Hybridization was carried out in a solution of 7% SDS, 1% BSA, 1 mM EDTA, 250 mM Na2HPO4. The hybridized filters were washed with four 5 min washes of 2×SSC, 0.1% SDS at room temperature and twice in 0.1×SSC, 0.1% SDS for 30 min at 65° C. The blots were then exposed to Kodak XAR 5 film. The probes used were GAPDH (ATCC clone 57090), collagen 1 (i.m.a.g.e. clone# 308919) and a human GIPR fragment derived by PCR corresponding to transmembrane domains 2 to 7.

[4] = system: SaOS2 cells; test: Cellular cAMP content by radioimmunoassay in SaOS2 cells; format: cell-based, human; conditions: GIP 1 μM
Description: as §1
cAMP measurements were done as described by Isales, et al., Endocrinology 129:489-95 (1991). Briefly, SaOS2 cells were grown to confluence in 60 mm^2 dishes and placed in KRB for 24 hours before use. In order to facilitate the measurement of cAMP production, 1 mM isomethylbutylxanthine (IBMX) was added prior to agonist addition for 10 minutes, followed by incubation with agonist for 10 minutes. Incubations were stopped by addition of 5% TCA, left on ice for 15 minutes and the cell extract collected. The extracts were neutralized by addition of a 1:1 solution ice cold Freon/Tri-N-octylamine (4:1,v/v). Each sample was vortexed for at least 30 sec to ensure adequate mixing. The mixture was then centrifaged at 2,500 rpm for 20 minutes ([…]). The top aqueous phase containing the cAMP was collected. The pH of the upper phase was checked to ensure adequate neutralization. The samples were stored at −70° C. until analysis. cAMP was measured using a commercially available radioimmunoassay (Biomedical Technologies, Stoughton, Mass.). […]

[5] = system: fetal radius and ulna bone explants; test: Fetal long bone resorption assay (45Ca release); format: cell-based, rat; conditions: 10 nM PTH, GIP 10 nM
Description: Pregnant Sprague-Dawley rats (Charles River Laboratories, Kingston, N.Y.) were injected with 200 μCi^45Ca on day 18 of gestation and killed one day later to remove the labeled fetal radius and ulna. […] Medium was changed every 3 days and ^45Ca was measured after every culture period. Resorption is expressed as the ratio of ^45Ca released from treated versus control bones.

[6] = molecular target: receptors for GIP; conditions: pancreatic β cells; depending on the cell system and the source of GIP (human versus porcine); read-out: binding affinity; cited from earlier work
[7] = system: MG63 cells; test: Alkaline phosphatase activity in MG63 cells; format: cell-based, human
Description: Shown are the Means±SEM of triplicates of four different experiments. *=p<0.05; +=p<0.001.
Alkaline phosphatase (ALP) activity was measured using a commercially available assay kit (ALP […] Colorimetric test; Sigma Diagnostic, St. Louis, Mo.). This kit measures the conversion of p-nitrophenyl phosphate top-nitrophenol and inorganic phosphate. The change in absorbance at 405 nm is directly proportional to ALP activity. MG 63 cells were grown in 6 well plates incubated with the indicated agonist for the indicated times (medium was changed daily with readdition of fresh agonist) and samples collected. The kit reagents were added to the sample cuvette in the spectrophotometer at 30° C. and absorbances at 405 nm obtained at 1, 2 and 3 minutes. ALP activity (U/L) was determined using the change in absorbance with time and a millimolar absorptivity of p-nitrophenol at 405 nm of 18.45.

CC[C@H](C)[C@H](NC(=O)[C@H](CO)NC(=O)[C@H](Cc1ccc(O)cc1)NC(=O)[C@H](CC(=O)O)NC(=O)[C@H](CO)NC(=O)[C@@H](NC(=O)[C@H](Cc1ccccc1)NC(=O)[C@@H](NC(=O)CNC(=O)[C@H](CCC(=O)O)NC(=O)[C@H](C)NC(=O)[C@@H](N)Cc1ccc(O)cc1)[C@@H](C)O)[C@@H](C)CC)C(=O)N[C@@H](C)C(=O)N[C@@H](CCSC)C(=O)N[C@@H](CC(=O)O)C(=O)N[C@@H](CCCCN)C(=O)N[C@H](C(=O)N[C@@H](Cc1c[nH]cn1)C(=O)N[C@@H](CCC(N)=O)C(=O)N[C@@H](CCC(N)=O)C(=O)N[C@@H](CC(=O)O)C(=O)N[C@@H](Cc1ccccc1)C(=O)N[C@H](C(=O)N[C@@H](CC(N)=O)C(=O)N[C@@H](Cc1c[nH]c2ccccc12)C(=O)N[C@@H](CC(C)C)C(=O)N[C@@H](CC(C)C)C(=O)N[C@@H](C)C(=O)N[C@@H](CCC(N)=O)C(=O)N[C@@H](CCCCN)C(=O)NCC(=O)N[C@@H](CCCCN)C(=O)N[C@@H](CCCCN)C(=O)N[C@@H](CC(N)=O)C(=O)N[C@@H](CC(=O)O)C(=O)N[C@@H](Cc1c[nH]c2ccccc12)C(=O)N[C@@H](CCCCN)C(=O)N[C@@H](Cc1c[nH]cn1)C(=O)N[C@@H](CC(N)=O)C(=O)N[C@H](C(=O)N[C@H](C(=O)N[C@@H](CCC(N)=O)C(=O)O)[C@@H](C)O)[C@@H](C)CC)C(C)C)[C@@H](C)CC [GIP, Glucose-dependent Insulinotropic Peptide]
GIP concentration at which a significant increase in [Ca2+]i occurs [1]: 0.1 nM | bone density versus controls ([2]; OVX rats treated with GIP): not statistically different from controls | densitometry of the whole extremity ([2]; all experimental groups): no different among the various experimental groups | bone density versus untreated animals ([2]; non-OVX control rats, GIP 0.05 mg/kg daily): lower bone density than the untreated animals, this difference was not statistically significant | time course of GIP effect on collagen mRNA ([3]; 1 nM GIP, 0-12 hours): after six hours of stimulation | effect on collagen synthesis ([3]; higher doses (0.10, and 100 nM)): maximal effect | effect on collagen synthesis ([3]; lower GIP dose 0.1 nM): no effect | elevation in cellular cAMP content [4]: 710 % above control | PTH-induced bone resorption [5]: inhibits PTH-induced bone resorption | Kd [6]: 0.0003 to 0.03 µM | GIP concentration significantly increasing ALP activity [7]: 0.1 nM | onset of ALP activity increase ([7]; 0.1 nM GIP, 1-6 days): as early as two days after stimulation | GIP effect on ALP versus positive control ([7]; 0.1 nM GIP, control 1,25 vitamin D (10 ng/ml)+TGF-β (10 ng/ml)): larger than that observed with 1,25 vitamin D | ALP activity at higher doses versus 0.1 nM ([7]; GIP 1-10 nM): did not increase ALP activity any further
